# Where two headings read alike, the source gives them in different places.
# What was measured:
# [1] = PAMPA (Parallel Artificial Membrane Permeability Assay); format: physicochemical
# Excerpt: PAMPA is a method which determines the permeability of substances from a donor compartment, through a lipid-infused artificial membrane into an acceptor compartment. See Ottaviani, G.; Martel, S.; Carrupt, P-A. “Parallel Artificial Membrane Permeability Assay: A New Membrane for the Fast Prediction of Passive Human Skin Permeability”, Journal of Medicinal Chemistry, 2006, 49 (13), 3948-3954). A multi-well microtitre plate is used for the donor and a membrane/acceptor compartment is placed on top; the whole assembly is commonly referred to as a “sandwich”. At the beginning of the test, the drug is added to the donor compartment, and the acceptor compartment is drug-free. After an incubation period which may include stirring, the sandwich is separated, and the amount of drug is measured in each compartment. Mass balance allows calculation of drug that remains in the membrane.
# The PAMPA was performed by Pion Inc using the GIT-0 lipid and 5 μM donor solution in pH 5.0 and pH 7.4 PRISMA buffer (containing 0.05% DMSO). The higher PAMPA data has been associated with better bystander killing. (Ogitani Y.; Hagihara K.; Oitate, M.; Naito, H.; Agatsuma T. “Bystander killing effect of DS-8201a, a novel anti-human epidermal growth factor receptor 2 antibody-drug conjugate, in tumors with human epidermal growth factor receptor 2 heterogeneity” Cancer Science, 2016, 107 (7), 1039-1046).
# Jeko-1 = assay: CTG assay (CellTiter-Glo cell viability), Jeko-1, payload compounds; format: cell-based; details: Homo sapiens, JeKo-1; 72 h, CellTiter-Glo; read-out: JeKo-1 IC50
# Excerpt: (§1) The CTG assay is a method of determining the number of viable cells in culture based on quantitation of the ATP present, an indicator of metabolically active cells. The cell assay requires the addition of a single reagent, Cell Titer Glo, in which cells are lysed and generation of a luminescent signal is produced. The luminescent signal is proportional to the amount of ATP present. The amount of ATP is directly proportional to the number of cells present in culture. For our assay, cells were ensured to be in log-phase for either Jeko-1 or MDA-MB-468. Cells were transferred to 96 wells and treated with compounds in three-fold serial dilution starting from 1 μM to 0.0000508 μM (10 points dilution), for 72 h. Cell viability was analyzed with CellTiter-Glo® Luminescent Cell Viability Assay (Promega) following manufactures' instruction. Percentage of viable cells in each compound concentration was determined by normalizing with the luminescence of vehicle control and plotted into percentage of viability versus dose response curve by nonlinear fit in GraphPad Prism software.
# MDA-MB-468 = assay: CTG assay (CellTiter-Glo cell viability), MDA-MB-468, payload compounds; format: cell-based; details: Homo sapiens, MDA-MB-468; 72 h, CellTiter-Glo; read-out: MDA-MB-468 IC50
# Excerpt: as §1
# [2] = Human liver microsome clearance (HLM CL); format: in vitro ADME
# Protocol: Working solution was prepared by adding 5 μL of compound and control stock solution (10 mM in dimethyl sulfoxide, DMSO) to 495 μL of acetonitrile (ACN) (intermediate solution concentration: 100 μM, 99% CAN and 1% DMSO. The appropriate concentrations of microsome working solutions were prepared in 100 mM potassium phosphate buffer. After reaction plates containing mixtures of compound and microsomes were pre-incubated at 37° C. for 10 min, […] of 2 mM of NADPH and 2 mM of MgCl2 solution was added to start the reaction. The final concentrations of incubation medium were as follows: microsome—0.5 mg protein/mL, test compound/control […], NADPH—1 mM, MgCl2 —1 mM, acetonitrile 0.99%, DMSO 0.01%. Incubations were performed at 37° C. for 60 min. Samples were taken out at TO, T5, T15, T30, T45 and T60, which was added intermediately to the ice-cold stop solution (acetonitrile with 200 ng/mL of tobutamide and labetalol as internal standard) (125 μl), shaken for 10 min, centrifuged at 4000 rpm for 20 min at 4° C. Analytical plates were analyzed by LCMS.
# (§2) Human liver microsome clearance assay assess metabolism by the cytochrome P450 system (phase I enzymes). These enzymes oxidize substrates by incorporating oxygen atoms into hydrocarbons, thus causing the introduction of hydroxyl groups, or N- O- and S-dealkylation of substrates and forming more polar products easier to be cleared. Human hepatocyte clearance assay measures more broadly the overall cellular metabolism of the test compound (phase I and phase II enzyme pathways). Phase II enzymes catalyze the conjugation reaction of xenobiotic metabolites and charged species, such as glutathione, sulfate, glycine, or glucuronic acid to form even more polar compounds for easier clearance.
# [3] = Human hepatocyte clearance (HHEP CL); format: in vitro ADME; design: CLint scaled / half-life: dose or concentration left out as unconfirmed; details: both sexes
# Protocol: Suspensions of human hepatocytes (from 10 mixed gender human donors, final concentration 0.5×10^6 cell/mL) in Williams' E medium were incubated for 90 min with a test compound (0.90% acetonitrile and 0.10% DMSO, final concentration […]) and positive controls (7-Ethoxycoumarin, 7-Hydroxycoumarin, 0.90% acetonitrile and 0.10% DMSO, final concentration […]), with constant shaking at about 600 rpm at 37° C. in an incubator at 5% CO2 and 95% humidity. The total volume of incubation was 200 μl. A sample ([…]) was taken out at TO, 15, 30, 60 and 90 min, which was added intermediately to the ice-cold stop solution (acetonitrile with 200 ng/mL of tobutamide and labetalol as internal standard) (125 μl), and vortexed at 500 rpm for 10 min, centrifuged at 3220×g for 20 min at 4° C. Analytical plates are sealed and stored at 4° C. until LCMS analysis. Viability of hepatocytes at pre-incubation was determined to be 84.5%.
# as §2
# [4] = pH 5.0 PRISMA buffer, GIT-0 lipid, 5 μM donor solution, read-out: PAMPA Pe pH 5.0
# [5] = pH 7.4 PRISMA buffer, GIT-0 lipid, 5 μM donor solution, read-out: PAMPA Pe pH 7.4
# [6] = human liver microsomes 0.5 mg protein/mL, NADPH, 60 min, read-out: HLM (T1/2)
# [7] = human liver microsomes 0.5 mg protein/mL, NADPH, 60 min, read-out: HLM Cl (human liver microsome clearance)
# [8] = human hepatocytes, 90 min incubation, read-out: HHEP (T1/2)
# [9] = human hepatocytes, 90 min incubation, read-out: HHEP Cl (human hepatocytes intrinsic clearance)
Structure (SMILES),Papp at 5 μM ([1]; pH 5) [nm/s],Papp at 5 μM ([1]; pH 7.4) [nm/s],IC50 (Jeko-1) [nM],IC50 (MDA-MB-468) [nM],"CLint scaled ([2]; human, microsomes) [L/h/kg]","half-life ([2]; human, microsomes) [min]","CLint scaled ([3]; human, hepatocytes) [L/h/kg]","half-life ([3]; human, hepatocytes) [min]","Papp at 5 μM [1, 4] [nm/s]","Papp at 5 μM [1, 5] [nm/s]","half-life [2, 6] [min]","CLint scaled [2, 7] [L/h/kg]","half-life [3, 8] [min]","CLint scaled [3, 9] [L/h/kg]","PAMPA Pe (10^−6 cm/s) pH 5.0 ([1]; 5 μM, pH 5)"
"CC[C@@]1(O)C(=O)OCc2c1cc1n(c2=O)Cc2c-1nc1cc(F)c(C)c3c1c2[C@](C)(NC(=O)CO)CC3 [Compound 10-75, N-((1R,9S)-9-ethyl-5-fluoro-9-hydroxy-1,4-dimethyl-10,13-dioxo-1,2,3,9,10,12,13,15-octahydrobenzo[de]pyrano[3′,4′:6,7]indolizino[1,2-b]quino-lin-1-yl)-2-hydroxyacetamide]",468,39,58.1,467,1.63,45.9,2.45,94.4,–,–,–,–,–,–,–
"CC[C@@]1(O)C(=O)OCc2c1cc1n(c2=O)Cc2c-1nc1cc(F)c(C)c3c1c2[C@@](C)(OCCO)CC3 (single isomer, unassigned) [Compound 14-91]",678,56,1.4,17.6,2.79,26.8,3.8,60.8,–,–,–,–,–,–,–
"CC[C@@]1(O)C(=O)OCc2c1cc1n(c2=O)Cc2c-1nc1cc(F)c(C)c3c1c2[C@](C)(NCCO)CC3.Cl [Compound 17-96, (1R,9S)-9-ethyl-5-fluoro-9-hydroxy-1-((2-hydroxyethyl)amino)-1,4-dimethyl-2,3,12,15-tetrahydrobenzo[de]pyrano[3′,4′:6,7]indolizino [1,2-b]quinoline-10,13(1H,9H)-dione hydrochloride]",–,–,2.1,22,–,–,–,–,626,43,17.5,4.28,82,2.83,–
"CC[C@@]1(O)C(=O)OCc2c1cc1n(c2=O)Cc2c-1nc1cc(F)c(C)c3c1c2[C@](C)(O)CC3 (single isomer, unassigned) [Compound 13-85]",697,60,2.6,36.2,3.5,21,4.54,51,–,–,–,–,–,–,–
"CC[C@@]1(O)C(=O)OCc2c1cc1n(c2=O)Cc2c-1nc1cc(F)c(C)c3c1c2[C@@](C)(O)CC3 (single isomer, unassigned) [Compound 13-84]",644,76,0.61,5.9,3.53,21,6.71,34,–,–,–,–,–,–,–
"CC[C@@]1(O)C(=O)OCc2c1cc1n(c2=O)Cc2c-1nc1cc(F)c(C)c3c1c2[C@](C)(OCCO)CC3 (single isomer, unassigned) [Compound 14-92]",691,45,1.2,14.2,1.15,65,3.08,75.1,–,–,–,–,–,–,–
"CC[C@@]1(O)C(=O)OCc2c1cc1n(c2=O)Cc2c-1nc1cc(F)c(C)c3c1c2[C@@](C)(NCCO)CC3.Cl [Compound 16-95, (1S,9S)-9-ethyl-5-fluoro-9-hydroxy-1-((2-hydroxyethyl)amino)-1,4-dimethyl-2,3,12,15-tetrahydrobenzo[de]pyrano[3′,4′:6,7]indolizino[1,2-b]quinoline-10,13(1H,9H)-dione hydrochloride]",–,–,1.3,13.7,–,–,–,–,631,55,49.1,1.52,130,1.78,–
"CC[C@@]1(O)C(=O)OCc2c1cc1n(c2=O)Cc2c-1nc1cc(F)c(C)c3c1c2[C@H](OCCO)CC3 (single isomer, unassigned) [Compound 5-47]",–,116,1.5,6.3,1.04,72.2,3.22,71.7,–,–,–,–,–,–,76/.1 10^−6 cm/s
"CC[C@@]1(O)C(=O)OCc2c1cc1n(c2=O)Cc2c-1nc1cc(F)c(C)c3c1c2[C@@H](O)CC3 (single isomer, unassigned) [Compound 3-35]",661,111,0.46,4.7,1.21,61.8,3.02,76.5,–,–,–,–,–,–,–
"CC[C@@]1(O)C(=O)OCc2c1cc1n(c2=O)Cc2c-1nc1cc(F)c(C)c3c1c2[C@@H](N)CCC3 (single isomer, unassigned) [Compound 7-59, methanesulfonate]",–,–,2.9,14.8,2.02,37,4.16,55.5,–,–,–,–,–,–,–
"CC[C@@]1(O)C(=O)OCc2c1cc1n(c2=O)Cc2c-1nc1cc(F)c(C)c3c1c2[C@H](N)CCC3 (single isomer, unassigned) [Compound 7-60, methanesulfonate]",–,–,2.1,14.9,2.45,30.6,3.87,59.7,–,–,–,–,–,–,–
